Source: US7935506B2, “Method for producing a lower alkyl ester of α-L-aspartyl-L-phenylalanine” (priority 2001, dated 2011)

What was measured:
Format in all cases: cell-based
Details in all cases: 37° C.
[1] = system: E. coli strain TG1 (pYDDG1); experiment: Growth on M9 glucose minimal agar plates containing inhibitor, strain TG1 (pYDDG1)
Procedure: (§1) The pYDDG1 and pYDDG2 plasmids and the pUC19 and pAYCTER3 vectors were introduced into E. coli strain TG1. Thus the strains TG1 (pYDDG1), TG1 (pYDDG2), TG1 (pUC19) and TG1 (pAYCTER3) were obtained.
(§2) Then the ability of these strains to grow in the presence of amino acids and amino acid analogues for each strain were determined on M9 glucose minimal agar plates containing graded concentrations of inhibitor. The plates were spotted with 10^6 to 10^7 cells from an overnight culture grown in a minimal medium (supplemented with 100 μg/ml of ampicillin for plasmid strains). The growth was estimated after 44 h incubation at 37° C.

[2] = system: E. coli strain TG1 (pUC19); experiment: Growth on M9 glucose minimal agar plates containing inhibitor, strain TG1 (pUC19)
Procedure: as §1, §2

[3] = system: E. coli strain TG1 (pYDDG2); experiment: Growth on M9 glucose minimal agar plates containing inhibitor, strain TG1 (pYDDG2)
Procedure: as §1, §2
Also: key: +: good growth; ±: pour growth; −: no growth.

Structure (SMILES): NC(Cc1c[nH]c2ccc(F)cc12)C(=O)O (racemic) [5-fluoro-DL-tryptophane]
- Growth after 44 h TG1 (pYDDG1) ([1]; substrate 0.0005 mg/ml): +
- Growth after 44 h TG1 (pUC19) ([2]; substrate 0.0005 mg/ml): −

Structure (SMILES): NC(Cc1ccc(F)cc1)C(=O)O (racemic) [p-fluoro-DL-phenylalanine]
- Growth after 44 h TG1 (pYDDG1) ([1]; substrate 1.0 mg/ml): +
- Growth after 44 h TG1 (pYDDG1) ([1]; substrate 2.0 mg/ml): +
- Growth after 44 h TG1 (pYDDG2) ([3]; substrate 1.0 mg/ml): +
- Growth after 44 h TG1 (pYDDG2) ([3]; substrate 2.0 mg/ml): −
- Growth after 44 h TG1 (pUC19) ([2]; substrate 1.0 mg/ml): −
- Growth after 44 h TG1 (pUC19) ([2]; substrate 2.0 mg/ml): −

Structure (SMILES): N[C@@H](Cc1ccccc1)C(=O)O [L-phenylalanine]
- Growth after 44 h TG1 (pYDDG1) ([1]; substrate 20.0 mg/ml): +
- Growth after 44 h TG1 (pYDDG2) ([3]; substrate 20.0 mg/ml): ±
- Growth after 44 h TG1 (pUC19) ([2]; substrate 20.0 mg/ml): −
